Test results taken from patent US10227331B2 (priority 2015, dated 2019).

How the values were obtained:
[1] = tested on: P. aeruginosa expressing IMP-1, efflux− (MB9799); assay: Efflux: concentration of MBL inhibitor which restores susceptibility to imipenem; assay type: cell-based, Pseudomonas aeruginosa; details: imipenem at 2 μg/mL, in the presence of a class A, C, D serine β-lactamase inhibitor closely related to relebactam
Excerpt: (§1) The strain background is Pseudomonas aeruginosa PAO1.

[2] = target: VIM-1 (Pseudomonas aeruginosa (strain ATCC 15692 / DSM 22644 / CIP 104116 / JCM 14847 / LMG 12228 / 1C / PRS 101 / PAO1), UniProt A0A0F7KYQ8); assay: biochemical; details: CCF2-FA substrate, 2 hours at 25° C
How it was run: (§2)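 Class B activity is measured in the presence of compound by fluorescence with CCF2-FA after a 2-hour incubation at 25° C. IC50 is taken from a 4-parameter fit of semi-logarithmic dose-response data.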

[3] = tested on: P. aeruginosa expressing IMP-1, efflux+ (MB9798); assay type: cell-based, Pseudomonas aeruginosa; details: for P. aeruginosa expressing IMP-1, efflux+ (MB9798) MITC95: imipenem at 2 μg/mL, in the presence of a class A, C, D serine β-lactamase inhibitor closely related to relebactam; for Efflux ratio: ratio MITC95 PA_9798/MITC95 PA_9799
Excerpt: as §1

[4] = tested on: Klebsiella pneumoniae expressing VIM-1 (IHMA599644); assay type: cell-based; details: with imipenem 1 μg/ml, 95% inhibition of bacterial growth; for Klebsiella pneumoniae MITC95: VIM-1 (IHMA599644)
How it was run: (§3)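 Clinical strains grown overnight on blood agar, then diluted 1:100 in 1.1× CAMHB and exposed to test compound with imipenem at 1 μg/ml. Incubation was 22–24 h at 35° C; growth was read by absorbance to find the compound concentration restoring imipenem susceptibility.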

[5] = tested on: Serratia marcescens expressing IMP-1 (CL5741); assay type: cell-based; details: with imipenem 1 μg/ml, 95% inhibition of bacterial growth; for Serratia marcescens MITC95: IMP-1 (CL5741)
How it was run: as §3

[6] = tested on: Escherichia coli expressing NDM-1 (CLB30005, CLB30016); assay type: cell-based; details: with imipenem 1 μg/ml, 95% inhibition of bacterial growth; for Escherichia coli MITC95: NDM-1 (CLB30016)
How it was run: as §3

[7] = target: IMP-1 (Serratia marcescens, UniProt P52699); assay: biochemical; assay type: biochemical; details: CCF2-FA substrate, 2 hours at 25° C; read-out: IMP-1 IC50
IMP-1, sequence (P52699 whole entry, looked up, species assumed): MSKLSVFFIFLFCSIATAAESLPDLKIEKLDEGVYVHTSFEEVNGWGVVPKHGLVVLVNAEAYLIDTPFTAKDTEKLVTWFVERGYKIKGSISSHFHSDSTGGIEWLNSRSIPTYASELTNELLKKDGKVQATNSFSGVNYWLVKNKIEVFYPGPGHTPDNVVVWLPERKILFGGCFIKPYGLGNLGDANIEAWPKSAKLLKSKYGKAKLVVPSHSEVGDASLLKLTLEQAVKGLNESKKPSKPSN
How it was run: as §2

[8] = target: NDM-1 (Klebsiella pneumoniae, UniProt C7C422); assay: biochemical; assay type: biochemical; details: CCF2-FA substrate, 2 hours at 25° C; read-out: NDM-1 IC50
NDM-1, sequence (C7C422 whole entry, looked up, species assumed): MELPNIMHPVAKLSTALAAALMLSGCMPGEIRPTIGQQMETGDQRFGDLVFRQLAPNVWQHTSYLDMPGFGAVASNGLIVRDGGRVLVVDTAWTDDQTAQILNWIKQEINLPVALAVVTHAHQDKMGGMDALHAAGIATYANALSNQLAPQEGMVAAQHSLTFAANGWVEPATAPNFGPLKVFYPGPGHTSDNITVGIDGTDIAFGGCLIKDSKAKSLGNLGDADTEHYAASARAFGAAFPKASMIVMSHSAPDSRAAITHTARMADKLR
How it was run: as §2

Row | Compound | P. aeruginosa expressing IMP-1, efflux− (MB9799) MITC95 [1] [µM] | IC50 [2] [nM] | P. aeruginosa expressing IMP-1, efflux+ (MB9798) MITC95 [3] [µM] | Efflux ratio [3] | Klebsiella pneumoniae expressing VIM-1 (IHMA599644) MITC95 [4] [µM] | Serratia marcescens expressing IMP-1 (CL5741) MITC95 [5] [µM] | Escherichia coli expressing NDM-1 (CLB30016) MITC95 [6] [µM] | IC50 [7] [nM] | IC50 [8] [nM] | Klebsiella pneumoniae MITC95 [4] [µM] | Serratia marcescens MITC95 [5] [µM] | Escherichia coli MITC95 [6] [µM]
1 | NCCS(=O)(=O)c1ccc(-c2ccnc(N)c2)c(-c2nnn[nH]2)c1S(N)(=O)=O.O=C(O)C(F)(F)F [Example 141, 2-((4-(2-aminopyridin-4-yl)-2-sulfamoyl-3-(1H-tetrazol-5-yl)phenyl)sulfonyl)ethanaminium 2,2,2-trifluoroacetate] | 0.8906 | 1.01 | 6.25 | 7.02 | 1.781 | 0.8906 | 0.25 | 4.89 | 4.32 | – | – | –
2 | CC(N)CS(=O)(=O)c1ccc(-c2cccc3sc(N)nc23)c(-c2nn[nH]n2)c1S(N)(=O)=O (stereo not drawn) [Example 269, 3-(2-aminobenzo[d]thiazol-4-yl)-6-(2-aminopropylsulfonyl)-2-(2H-tetrazol-5-yl)benzenesulfonamide] | 0.7813 | 0.176 | 0.7813 | 1.00 | – | – | – | 0.152 | 0.116 | 3.125 | 1.563 | 1.563
3 | NCCS(=O)(=O)c1ccc(-c2cccc(NC(=O)CN)c2NC(=O)CN)c(-c2nn[nH]n2)c1S(N)(=O)=O [Example 338, N,N′-(4′-((2-Aminoethyl)sulfonyl)-3′-sulfamoyl-2′-(2H-tetrazol-5-yl)-[1,1′-biphenyl]-2,3-diyl)bis(2-aminoacetamide)] | 6.25 | 15.1 | 25 | 4.00 | – | – | – | 74.9 | 20.4 | 6.25 | 3.125 | 1.563
4 | NC(=O)N1CC(S(=O)(=O)c2ccc(-c3cccc4[nH]c(N)nc34)c(-c3nn[nH]n3)c2S(N)(=O)=O)C1 [Example 56, 3-(4-(2-amino-1H-benzo[d]imidazol-4-yl)-2-sulfamoyl-3-(2H-tetrazol-5-yl)phenylsulfonyl)azetidine-1-carboxamide] | 3.125 | 0.35 | 3.125 | 1.00 | 6.25 | 3.125 | 6.25 | 2.82 | 0.18 | – | – | –
5 | NS(=O)(=O)c1c([S+]([O-])C2CNC2)ccc(-c2cnc3ccccn23)c1-c1nn[nH]n1 (stereo not drawn) [Example 8, 6-(azetidin-3-ylsulfinyl)-3-(imidazo[1,2-a]pyridin-3-yl)-2-(2H-tetrazol-5-yl)benzenesulfonamide] | 6.25 | 6.92 | 50 | 8.00 | 12.5 | 12.5 | 3.125 | 37.7 | 2.62 | – | – | –
6 | NCCS(=O)(=O)c1ccc(-c2cccc(-n3cccn3)c2)c(-c2nnn[nH]2)c1S(N)(=O)=O.O=C(O)C(F)(F)F [Example 156, 2-((3′-(1H-pyrazol-1-yl)-3-sulfamoyl-2-(1H-tetrazol-5-yl)-[1,1′-biphenyl]-4-yl)sulfonyl)ethanaminium 2,2,2-trifluoroacetate] | 1.563 | 0.743 | 50 | 31.99 | 6.25 | 1.563 | 0.7813 | 0.981 | 1.08 | – | – | –
7 | NCCNC(=O)c1ccccc1-c1ccc(S(=O)(=O)CCN)c(S(N)(=O)=O)c1-c1nn[nH]n1 [Example 342, N-(2-Aminoethyl)-4′-((2-aminoethyl)sulfonyl)-3′-sulfamoyl-2′-(2H-tetrazol-5-yl)-[1,1′-biphenyl]-2-carboxamide] | 3.125 | 2.84 | 12.5 | 4.00 | – | – | – | 34.2 | 15.3 | 1.563 | 3.125 | 1.563
8 | NCCS(=O)(=O)c1ccc(-c2ccc3[nH]ncc3c2)c(-c2nnn[nH]2)c1S(N)(=O)=O.O=C(O)C(F)(F)F [Example 167, 2-((4-(1H-indazol-5-yl)-2-sulfamoyl-3-(1H-tetrazol-5-yl)phenyl)sulfonyl)ethanaminium 2,2,2-trifluoroacetate] | 0.7813 | 0.343 | 6.25 | 8.00 | 3.125 | 3.125 | 6.25 | 1.07 | 0.882 | – | – | –
9 | NS(=O)(=O)c1c(S(=O)(=O)C2CNC2)ccc(-c2cccc3[nH]ncc23)c1-c1nnn[nH]1.O=C(O)C(F)(F)F [Example 100, 3-((4-(1H-indazol-4-yl)-2-sulfamoyl-3-(1H-tetrazol-5-yl)phenyl)sulfonyl)azetidin-1-ium 2,2,2-trifluoroacetate] | 1.563 | 0.331 | 6.25 | 4.00 | 3.125 | 3.125 | 6.25 | 1.61 | 0.358 | – | – | –
10 | NCCS(=O)(=O)c1ccc(-c2cccc3cn[nH]c23)c(-c2nnn[nH]2)c1S(N)(=O)=O [Example 298, 6-((2-aminoethyl)sulfonyl)-3-(1H-indazol-7-yl)-2-(1H-tetrazol-5-yl) benzenesulfonamide] | 0.7813 | 0.257 | 1.563 | 2.00 | – | – | – | 0.3 | 0.425 | 1.563 | 1.563 | 0.7813
11 | NCCS(=O)(=O)c1ccc(-c2ccc3nncn3c2)c(-c2nnn[nH]2)c1S(N)(=O)=O.O=C(O)C(F)(F)F [Example 146, 2-((4-([1,2,4]triazolo[4,3-a]pyridin-6-yl)-2-sulfamoyl-3-(1H-tetrazol-5-yl)phenyl)sulfonyl)ethanaminium 2,2,2-trifluoroacetate] | 1.563 | 1.32 | 100 | 63.98 | 6.25 | 3.125 | 0.7813 | 44.4 | 20.6 | – | – | –
